Experimental data published in the SangsterLogP compilation.

Experiment: method code SF-AS, from DOI: 10.1002/zfch.19790190911

Structure (SMILES) | logP
CCCc1nnc(N)o1 | 0.23
Nc1nnc(Cc2ccccc2)o1 | 0.95
Nc1nnc(CCc2ccccc2)o1 | 1.19
CCCCCCCCC(=O)NN | 0.5
CC(C)(C)C(=O)NN | -0.35
CC(C)Cc1nnc(N)o1 | 0.4
CCCCCCc1nnc(N)o1 | 1.43
CCC(C)C(=O)NN (stereo not drawn) | -0.33
CC(=O)NN | -1.58
CCCCCCC(=O)NN | 0.97
CCCCCCCc1nnc(N)o1 | 0.73
CCCCCc1nnc(N)o1 | 1.1
Nc1nnco1 | -1.44
CCC(C)c1nnc(N)o1 (stereo not drawn) | 0.62
CCCCC(=O)NN | -0.11
CC(C)C(=O)NN | -0.63
CC(C)(C)c1nnc(N)o1 | 0.48
CCCCc1nnc(N)o1 | 0.65
CCCCCCCCCC(=O)NN | 0.03
CCCC(=O)NN | -0.62
Cc1nnc(N)o1 | -0.92
CC(C)c1nnc(N)o1 | 0.2
CCC(=O)NN | -1
NNC=O | -2.05
CCCCCCCC(=O)NN | 1
CC(C)CC(=O)NN | -0.31
CCCCCC(=O)NN | 0.48
CCc1nnc(N)o1 | -0.3
